Measured values: US20150352108A1, “AMINO-PYRIMIDINE COMPOUNDS AS INHIBITORS OF TBK1 AND/OR IKK EPSILON” (Alzheimer's Institute of America, priority 2009, published 2015)
Read-outs that look alike come from different tables or passages of the source.

Tests used:
IKKε = biological target: T1, IKKε (Homo sapiens, UniProt Q14164); test: In-vitro IKKε kinase assay ([γ33]ATP filter-plate); format: biochemical
T1 construct: His-tag; made in house; host or cells: Sf9 insect cells
T1 sequence (Q14164 1-716): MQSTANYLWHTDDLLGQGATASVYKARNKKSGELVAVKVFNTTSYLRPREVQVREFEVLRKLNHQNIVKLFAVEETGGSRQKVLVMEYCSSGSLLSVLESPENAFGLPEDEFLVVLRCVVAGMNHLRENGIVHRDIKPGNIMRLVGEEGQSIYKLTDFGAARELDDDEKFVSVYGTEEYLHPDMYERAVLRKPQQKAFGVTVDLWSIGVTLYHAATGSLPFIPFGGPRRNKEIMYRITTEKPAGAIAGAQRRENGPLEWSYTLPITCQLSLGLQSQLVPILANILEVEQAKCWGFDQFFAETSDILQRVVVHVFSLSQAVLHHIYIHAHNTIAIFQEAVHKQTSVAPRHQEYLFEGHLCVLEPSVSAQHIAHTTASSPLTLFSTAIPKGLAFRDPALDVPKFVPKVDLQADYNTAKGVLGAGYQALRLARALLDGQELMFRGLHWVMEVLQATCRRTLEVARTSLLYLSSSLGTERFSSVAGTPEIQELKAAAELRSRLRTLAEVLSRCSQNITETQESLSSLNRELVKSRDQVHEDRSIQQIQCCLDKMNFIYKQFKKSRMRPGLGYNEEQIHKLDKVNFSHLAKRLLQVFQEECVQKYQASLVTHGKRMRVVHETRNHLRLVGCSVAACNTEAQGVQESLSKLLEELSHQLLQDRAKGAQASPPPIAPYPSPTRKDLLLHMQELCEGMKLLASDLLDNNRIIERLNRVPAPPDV
Summary of the method: (§1)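 Phosphorylation of casein or myelin basic protein was counted by P-81 filter capture after 30-45 min reactions stopped with phosphoric acid, with counts normalized to DMSO after background subtraction. ATP was twice Km: 60 μM for TBK1 and 32 μM for IKKε, plus [γ33]ATP. Sf9-expressed His-tag enzymes were used at normal/sensitized levels of 0.1/0.02 μg/ml (TBK1) and 0.1/0.015 μg/ml (IKKε).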

[1] = test system: IKKε-mediated phosphorylation of IRF3; test: In-situ phosphorylation of IRF3 (pIRF3 Ser396 ELISA) in HEK293T cells cotransfected with IRF3 and IKKε; format: cell-based; conditions: Homo sapiens, HEK-293T
Summary of the method: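 For the IRF3 ELISA, HEK293T cells cotransfected with IRF3 and IKKε were replated at 20,000/well and treated 20 h. Phospho-Ser396 IRF3 was measured by ELISA and normalised to DMSO, with viability checked by CellTiter-Glo. For IRF7, cells transfected with IRF7 and TBK1 were treated overnight, and pSer477/Ser479 IRF7 was detected by Western blot.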

TBK1 = biological target: T2, TBK1 (Homo sapiens, UniProt Q9UHD2); test: In-vitro TBK1 kinase assay ([γ33]ATP filter-plate); format: biochemical
T2 construct: His-tag; made in house; host or cells: Sf9 insect cells
T2 sequence (Q9UHD2 1-729): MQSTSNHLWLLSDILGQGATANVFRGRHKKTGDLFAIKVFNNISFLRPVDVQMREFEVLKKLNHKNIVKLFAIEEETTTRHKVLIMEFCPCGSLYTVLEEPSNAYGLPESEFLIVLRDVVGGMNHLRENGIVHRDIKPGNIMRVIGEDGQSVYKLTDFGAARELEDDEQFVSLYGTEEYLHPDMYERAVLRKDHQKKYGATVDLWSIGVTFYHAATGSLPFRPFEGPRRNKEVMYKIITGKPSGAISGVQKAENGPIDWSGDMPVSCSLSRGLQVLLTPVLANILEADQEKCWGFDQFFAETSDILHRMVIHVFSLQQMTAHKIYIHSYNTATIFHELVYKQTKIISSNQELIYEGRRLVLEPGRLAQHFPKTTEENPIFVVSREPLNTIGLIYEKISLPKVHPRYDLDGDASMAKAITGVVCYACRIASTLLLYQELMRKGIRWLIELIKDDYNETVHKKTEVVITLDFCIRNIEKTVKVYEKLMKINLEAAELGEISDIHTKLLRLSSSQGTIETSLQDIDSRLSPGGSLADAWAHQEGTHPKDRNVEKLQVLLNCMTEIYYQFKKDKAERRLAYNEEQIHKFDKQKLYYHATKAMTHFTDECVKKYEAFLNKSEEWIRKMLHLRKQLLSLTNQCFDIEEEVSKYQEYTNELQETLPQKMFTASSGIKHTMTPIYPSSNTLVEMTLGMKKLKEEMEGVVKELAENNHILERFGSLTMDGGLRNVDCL
Summary of the method: as §1

[2] = text bins, read-out: IC50 for inhibition of the kinase activity of IKKε
[3] = HEK293T cells, 20 hours, text bins, read-out: IC50 for inhibition of the in-situ IKKε-mediated phosphorylation of IRF3
[4] = text bins, read-out: IC50 for inhibition of the kinase activity of TBK1
[5] = HEK293T cells in culture, Table 3, read-out: pIRF3 ELISA IC50

| Structure (SMILES) | IC50 (IKKε; [2]) [nM] | IC50 [1, 3] [nM] | IC50 (TBK1; [4]) [nM] | IC50 (IKKε; Table 3, read-out: IKKε IC50) [nM] | IC50 [1, 5] [nM] | IC50 (TBK1; Table 3, read-out: TBK1 IC50) [nM] |
| --- | --- | --- | --- | --- | --- | --- |
| COc1ccc(Nc2nccc(-c3ccc(OC4CCOCC4)c(C#N)c3)n2)cc1OCCCC1CCN(C(C)C)CC1 [compound 520, 5-{2-[(4-medthoxy-3-{3-[1-(propan-2-yl)piperidin-4-yl]propoxy}phenyl)amino]pyrimidin-4-yl}-2-(tetrahydro-2H-pyran-4-yloxy)benzonitrile] | < 5 | < 100 | < 10 | – | – | – |
| CN(C)C(=O)Nc1cccc(Nc2nccc(-c3ccc(OC4CCOCC4)c(C#N)c3)n2)c1 [compound 631, 3-[3-({4-[3-Cyano-4-(tetrahydro-2H-pyran-4-yloxy)phenyl]pyrimidin-2-yl}amino)phenyl]-1,1-dimethylurea] | < 5 | < 100 | < 10 | 0.8 | 31.9 | 1.3 |
| N#Cc1cc(-c2ccnc(Nc3ccc(N4CCOCC4)cc3)n2)ccc1OC1CCN(C=O)CC1 [Example 242, 2-[(1-formylpiperidin-4-yl)oxy]-5-(2-{[4-(morpholin-4-yl)phenyl]amino}pyrimidin-4-yl)benzonitrile] | < 5 | 250 to 500 | < 10 | – | – | – |
| N#Cc1cc(-c2ccnc(Nc3ccc(N4CCOCC4)cc3)n2)ccc1NC(=O)CC(F)(F)F [Example 93, N-[2-cyano-4-(2-{[4-(morpholin-4-yl)phenyl]amino}pyrimidin-4-yl)phenyl]-3,3,3-trifluoropropanamide] | < 5 | 100 to 250 | < 10 | 0.7 | 139 | 0.3 |
| COc1ccc(Nc2nccc(-c3ccc(OC4CCOCC4)c(C#N)c3)n2)cc1OCCCC1CCNCC1 [compound 522, 5-[2-({4-methoxy-3-[3-(piperidin-4-yl)propoxy]phenyl}amino)pyrimidin-4-yl]-2-(tetrahydro-2H-pyran-4-yloxy)benzonitrile] | < 5 | < 100 | < 10 | – | – | – |
| CNS(=O)(=O)Cc1ccc(Nc2nccc(-c3ccc(OC4CCOCC4)c(C#N)c3)n2)cc1 [compound 413, 1-[4-({4-[3-cyano-4-(tetrahydro-2H-pyran-4-yloxy)phenyl]pyrimidin-2-yl}amino)phenyl]-N-methylmethane-sulfonamide] | < 5 | < 100 | < 10 | – | – | – |
| N#Cc1cc(-c2ccnc(Nc3cccc(OCCCN4CCOCC4)c3)n2)ccc1OC1CCOCC1 [compound 528, 5-[2-({3-[3-(morpholin-4-yl)propoxy]phenyl}amino)pyrimidin-4-yl]-2-(tetrahydro-2H-pyran-4-yloxy)benzonitrile] | 5 to 50 | 250 to 500 | < 10 | – | – | – |
| N#Cc1cc(-c2ccnc(Nc3cccc(CS(=O)(=O)NCCO)c3)n2)ccc1NC(=O)C1CC1 [compound 627, N-(2-Cyano-4-{2-[(3-{[(2-hydroxyethyl)sulfamoyl]methyl}phenyl)amino]pyrimidin-4-yl}phenyl) cyclopropane-carboxamide] | < 5 | – | < 10 | 3 | 1100 | 1.3 |
| COc1cc(Nc2nccc(-c3ccc(OC4CCOCC4)c(C#N)c3)n2)ccc1CN1CC(O)C1 [compound 483, 5-[2-({4-[(3-Hydroxyazetidin-1-yl)methyl]-3-methoxyphenyl}amino)pyrimidin-4-yl]-2-(tetrahydro-2H-pyran-4-yloxy)benzonitrile] | 5 to 50 | < 100 | < 10 | – | – | – |
| Cc1ccc(Nc2nccc(-c3ccc(OC4CCOCC4)c(C#N)c3)n2)cc1OCCN1CCNCC1 [compound 533, 5-[2-({4-Methyl-3-[2-(piperazin-1-yl)ethoxy]phenyl}amino)pyrimidin-4-yl]-2-(tetrahydro-2H-pyran-4-yloxy)benzonitrile] | < 5 | < 100 | < 10 | – | – | – |
| COCCOC1CN(C(=O)c2ccc(Nc3nccc(-c4ccc(OC5CCOCC5)c(C#N)c4)n3)cc2OC)C1 [compound 632, 5-{2-[(3-Methoxy-4-{[3-(2-methoxyethoxy)azetidin-1-yl]carbonyl}phenyl)amino]pyrimidin-4-yl}-2-(tetrahydro-2H-pyran-4-yloxy)benzonitrile] | < 5 | < 100 | < 10 | 0.5 | 22.8 | 0.4 |
| N#Cc1cc(-c2ccnc(Nc3ccc(F)c(OCCCN4CCOCC4)c3)n2)ccc1OC1CCOCC1 [compound 519, 5-[2-({4-Fluoro-3-[3-(morpholin-4-yl)propoxy]phenyl}amino)pyrimidin-4-yl]-2-(tetrahydro-2H-pyran-4-yloxy)benzonitrile] | < 5 | < 100 | < 10 | – | – | – |

Results, then the compound that gave them:

| IC50 (IKKε; [2]) [nM] | IC50 [1, 3] [nM] | IC50 (TBK1; [4]) [nM] | IC50 (IKKε; Table 3, read-out: IKKε IC50) [nM] | IC50 [1, 5] [nM] | IC50 (TBK1; Table 3, read-out: TBK1 IC50) [nM] | Structure (SMILES) |
| --- | --- | --- | --- | --- | --- | --- |
| < 5 | 250 to 500 | < 10 | – | – | – | COc1cc(Nc2nccc(-c3ccc(NC(=O)C(C)C)c(C#N)c3)n2)ccc1N1CCOCC1 [Example 75, N-[2-cyano-4-(2-{[3-methoxy-4-(morpholin-4-yl)phenyl]amino}pyrimidin-4-yl)phenyl]-2-methylpropanamide] |
| < 5 | < 100 | < 10 | 0.3 | 31 | 0.3 | COc1cc(Nc2nccc(-c3ccc(O[C@@H]4CCN(C(=O)CO)C4)c(C#N)c3)n2)ccc1N1CCOCC1 [compound 588, 2-{[(3R)-1-(hydroxyacetyl)pyrrolidin-3-yl]oxy}-5-(2-{[3-methoxy-4-(morpholin-4-yl)phenyl]amino}pyrimidin-4-yl)benzonitrile] |
| < 5 | < 100 | < 10 | – | – | – | CCN1CCC(CCCOc2cc(Nc3nccc(-c4ccc(OC5CCOCC5)c(C#N)c4)n3)ccc2OC)CC1 [compound 521, 5-[2-({3-[3-(1-ethylpiperidin-4-yl)propoxy]-4-methoxyphenyl}amino)pyrimidin-4-yl]-2-(tetrahydro-2H-pyran-4-yloxy)benzonitrile] |
| < 5 | < 100 | < 10 | – | – | – | N#Cc1cc(-c2ccnc(Nc3ccc(N4CCOCC4)cc3)n2)ccc1OCC1CC1 [compound 438, 2-(cyclopropylmethoxy)-5-(2-{[4-(morpholin-4-yl)phenyl]amino}pyrimidin-4-yl)benzonitrile] |
| < 5 | < 100 | < 10 | – | – | – | N#Cc1cc(-c2ccnc(Nc3cccc(N)c3)n2)ccc1OC1CCOCC1 [compound 393, 5-{2-[(3-Aminophenyl)amino]pyrimidin-4-yl}-2-(tetrahydro-2H-pyran-4-yloxy)benzonitrile] |
| 5 to 50 | < 100 | < 10 | – | – | – | N#Cc1cc(-c2ccnc(Nc3ccc(N4CCOCC4)cc3)n2)ccc1NC1CCOCC1 [compound 468, 5-(2-{[4-(morpholin-4-yl)phenyl]amino}pyrimidin-4-yl)-2-(tetrahydro-2H-pyran-4-ylamino) benzonitrile] |
